The subject of test [1] is cell-free Bax cleavage activity (calpain-like) in whole cell extract of VP-16-treated Jurkat T cells. Briefly: Cell-free Bax cleavage assay with protease inhibitors. The following applies: 35S-labeled Bax, 2 hours. It counts as biochemical, human. As to the method:
Briefly, the ^35S-labeled Bax protein (1 μl) was incubated with 100 μg of a whole cell extract or a cytosol or mitochondrial fraction in an assay buffer (10 mM HEPES, pH 7.4, 5 mM MgCl2, 5 mM CaCl2, and 1 mM DTT), supplemented with ATP-regenerating system (0.1 mg/ml creatine kinase, 100 mM creatine phosphate, and 5 mM ATP) for 2 hours at 37° C. […] For inhibitor studies, 10 μM of calpain inhibitor-1 (LLnL), 10 μM of calpain inhibitor-2 (LLM), 20 μM of pan-caspase inhibitor Z-VAD-FMK, 20 μM of caspase-3 inhibitor Ac-DEVD-CMK, or 20 μM of the specific proteasome inhibitor castolactacystin, lactone was added in the Bax cleavage system.

Test [2] has as its system Jurkat T cells. Briefly: Cytochrome c release from mitochondria to cytosol in drug-treated Jurkat T cells. In kind it is cell-based, human. As to the method: (§1) The resulting supernatant was then centrifuged at 14,000×g for 30 minutes, followed by collection of both the supernatant and pellet fractions. […] The supernatant was further centrifuged at 600,000×g for 30 minutes and the resulting supernatant was collected as the cytosol fraction. To prepare a whole cell extract, cells were lysed in the lysis buffer, and the lysate was centrifuged at 14,000×g for 30 minutes.
(§2) The primary antibodies used were: monoclonal B9anti-Bax antibody (Santa Cruz Biotechnology, Santa Cruz, Calif.) at 1:500, monoclonal 6A7 anti-Bax antibody (Pharmingen, San Diego, Calif.) at 1:500, monoclonal anti-Bcl-2 antibody (Dako, Glostrup, Denmark) at 1:500, monoclonal anti-caspase-3 antibody (Onocogene, Cambridge, Mass.) at 1:200, monoclonal anti-cytochrome C antibody (Pharmingen) at 1:500, polyclonal anti-PARP antibody (Boehringer Manheim, Indianapolis, Ind.) at 1:3000, monoclonal anti-cytochrome oxidase unit 11 (COX) antibody (Molecular Probes, Eugene, Oreg.) at 1:200, and monoclonal anti-calpain 30 kDa subunit antibody (Chemicon, Temecula, Calif.) at 1:500.

Test [3] relates to Jurkat T cells. Briefly: Cell-free Bax cleavage activity in whole cell lysates of drug-treated Jurkat T cells. Particulars: VP-16 50 μM; absent in untreated cells.
Test [4] deals with Jurkat T cells. The test is described as follows: Apoptotic execution in drug-treated Jurkat T cells (caspase-3 processing, PARP cleavage, DNA fragmentation, TUNEL).
Test [5] concerns Neo cells (Jurkat T cells transfected with vector alone). The test is described as follows: VP-16 treatment of Neo (vector) Jurkat T cells. It counts as cell-based, human. The following applies: VP-16 50 μM. As to the method: (§3) MCF-7, Jurkat T. Neo and Bcl-2 cells were cultured in RPMI 1640 supplemented with 10% fetal calf serum, 100 units/ml of penicillin and 100 μg/ml of streptomycin at 37° C. in a humidified atmosphere consisting of 5% CO2 and 95% air. […] For the experiment using a specific calpain inhibitor, Jurkat T cells were pretreated for 1 hour with calpeptin at 10 μM, followed by a co-incubation with 50 μM of VP-16, as indicated in figure legends.
as §1
Briefly, the ^35S-labeled Bax protein (1 μl) was incubated with 100 μg of a whole cell extract or a cytosol or mitochondrial fraction in an assay buffer (10 mM HEPES, pH 7.4, 5 mM MgCl2, 5 mM CaCl2, and 1 mM DTT), supplemented with ATP-regenerating system (0.1 mg/ml creatine kinase, 100 mM creatine phosphate, and 5 mM ATP) for 2 hours at 37° C. […]

Test [6] concerns Jurkat T cells. The following applies: VP-16 50 μM.
Test [7] has as its system Bcl-2 cells (Jurkat T cells overexpressing Bcl-2). Briefly: VP-16 treatment of Bcl-2 overexpressing Jurkat T cells. Particulars: VP-16 50 μM.
Test [8] has as its system Jurkat T cells. Briefly: Calpeptin pre- and co-treatment of VP-16-treated Jurkat T cells. In kind it is cell-based, human. The procedure: as §3, §1, §2
A further test addresses T1, Bcl-2 (Homo sapiens, UniProt P10415).
T1 construct: the mitochondria fraction (500 μg of protein) from VP-16-treated or untreated Jurkat T cells; endogenous in cells; host or cells: Jurkat T cells, untreated or treated with VP-16 for 12 hours; mitochondrial membrane-enriched fraction
The test is described as follows: Immunoprecipitation-Western blot assay of interaction with Bcl-2 in mitochondrial fraction. In kind it is binding. The following applies: mitochondrial fraction of Jurkat T cells untreated or treated with VP-16 for 12 hours. The procedure: Immunoprecipitation assay was performed as described previously (Fattman et al., 1997). Briefly, the mitochondria fraction (500 μg of protein) from VP-16-treated or untreated Jurkat T cells was incubated with a 5 μg of a monoclonal anti-human Bcl-2 antibody overnight at 4° C. The protein-antibody complex was then precipitated by incubating with 2 μl of Protein G plus Protein A agarose (Oncogene) for 1 hour at 4° C. and centrifuging at 2000×g at 4° C. for 1 hour. Both the precipitate and supernatant fractions were then analyzed by immunoblotting using the monoclonal B9 anti-human Bax antibody.

For test [9], the system named is human breast cancer MCF-7. The test is described as follows: Transient transfection of Bax/p18 or Bax/p21 cDNA in MCF-7 cells. It counts as cell-based. The procedure: as §1
(§4) Bax/p18 cDNA was amplified by PCR with human Bax-α-cDNA as template using primer 5′-[…] (forward) and 5′-[…] (reverse) (Wood et al., 1998) and cloned into pcDNA3.0 between Hind III and Xho I restriction enzyme sites. Bax/p18 cDNA was verified by sequencing. MCF-7, Jurkat T. Neo and BcI-2 cells were transfected with pcDNA3.0 vector alone or pcDNA3.0 vector containing Bax/p18 or Bax/p21 cDNA using GenePORTER Transfection Reagent (Gene Therapy Systems, San Diego, Calif.) according to the manufacture's instructions. Briefly, 3 μg of plasmid DNA in 500 μl of RPMI 1640 medium was incubated for 30 minutes at room temperature with 25 μl of GenePORTER reagent in 500 μl of RPMI 1640 medium. The resultant GenePORTER-plasmid DNA mixture (1 ml) was then added into cells 2×10^6 cells in a well of a 6-well plate, followed by 5 hours incubation at 37° C. in a humidified atmosphere consisting of 5% CO2. […]

The subject of test [10] is Jurkat T cells. Briefly: Transient transfection of Bax/p18 or Bax/p21 cDNA in Jurkat T cells. In kind it is cell-based, human. The following applies: 48 hours after cDNA transfection. As to the method: as §1
as §4, with “CO2. After that, 1 ml of RPMI 1640 medium containing 20% fetal calf serum was added and the cells were further incubated for additional 43 hours before harvest.” for “CO2.”

Setting [11] is: calpeptin 10 μM pre- and co-treatment, VP-16 50 μM.

Where a SMILES comes first, the peptide text is derived from it. [ ]: non-standard residue; d: D form. The star is where a group is joined. Nle = CCCC[C@H](N)C(=O)O; Cbz = O=C(OCc1ccccc1)*; CH2F = FC*

T1 sequence (P10415 whole entry): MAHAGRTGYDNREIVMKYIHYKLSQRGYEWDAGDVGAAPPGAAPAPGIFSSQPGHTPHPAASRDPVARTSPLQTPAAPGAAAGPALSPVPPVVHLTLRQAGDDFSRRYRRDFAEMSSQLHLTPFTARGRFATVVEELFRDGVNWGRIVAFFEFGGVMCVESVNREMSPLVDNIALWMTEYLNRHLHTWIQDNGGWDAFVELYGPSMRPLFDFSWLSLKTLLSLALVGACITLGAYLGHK

In the case of `CC(=O)N[C@@H](CC(=O)O)C(=O)N[C@@H](CCC(=O)O)C(=O)N[C@H](C(=O)N[C@@H](CC(=O)O)C(=O)CCl)C(C)C` [Ac-DEVD-CMK], the “inhibition of cell-free Bax cleavage activity” value in [1] (inhibitor 20 μM) is given as “partially inhibited”.

For `CSCC[C@@H](C=O)NC(=O)[C@H](CC(C)C)NC(=O)[C@H](CC(C)C)NC(C)=O` [LLM, calpain inhibitor KK] (Ac-Leu-Leu-Met-aldehyde), the “inhibition of cell-free Bax cleavage activity” value in test [1] (inhibitor 10 μM) is “completely inhibited”.

As for `CCCC[C@@H](C=O)NC(=O)[C@H](CC(C)C)NC(=O)[C@H](CC(C)C)NC(C)=O` [LLnL, calpain inhibitor I] (Ac-Leu-Leu-[Nle]-aldehyde), the “inhibition of cell-free Bax cleavage activity” value in test [1] (inhibitor 10 μM) was “completely inhibited”.

Turning to `COc1cc([C@@H]2c3cc4c(cc3[C@@H](O[C@@H]3O[C@@H]5CO[C@@H](C)O[C@H]5[C@H](O)[C@H]3O)[C@H]3COC(=O)[C@H]23)OCO4)cc(OC)c1O` [VP-16, Etoposide], in the test on Jurkat T cells [2] (VP-16 50 μM), the “treatment time after which cytosolic cytochrome c appeared” value was found to be 3 h. Also, the “treatment time at which cell-free Bax cleavage activity is present in cell extract” value in the test with Jurkat T cells [3] was at least 3 h. Also, the “time at which apoptotic execution phase began (caspase-3 processing/activation, PARP cleavage, DNA fragmentation)” value in the test on Jurkat T cells [4] (VP-16 50 μM) came out at 6 h. In addition, in [5], the “earliest time of appearance of Bax/p18 and p36 bands” value turned out to be 3 h; the “treatment time at which apoptosis was induced (caspase-3 processing, PARP cleavage)” value was at least 6 h. In the test on Jurkat T cells [6], the “earliest time of Bax cleavage (Bax/p18 and p36 bands, B9 antibody)” value is 3 h; the “time at which autolysis of the calpain 30 kDa subunit began” value is 3 h. In addition, in test [7], the “delay of appearance of Bax/p18 and p36 bands versus Neo cells” value amounted to 9 h; the “delay of detection of cell-free Bax cleavage activity versus Neo cells” value was determined as 9 h; the “time after which caspase-3 processing and PARP cleavage were observed” value was determined as 24 h; the “time after which release of cytochrome c was detected” value was determined as 12 h. Besides, in test [7], the “time of appearance of Bax/p18 and p36 bands” value stood at 12 h; the “time of autolysis of calpain 30 kDa subunit (delayed from 3 hours in Neo cells)” value came to 12 h.

For `COC(=O)C[C@H](NC(=O)[C@H](C)NC(=O)[C@@H](NC(=O)OCc1ccccc1)C(C)C)C(=O)CF` [Z-VAD-FMK] (Cbz-Val-Ala-Asp(OMe)-CH2F), the “inhibition of cell-free Bax cleavage activity” value in [1] (inhibitor 20 μM) is reported as “partially inhibited”.

In the case of `CCCC[C@@H](C=O)NC(=O)[C@H](CC(C)C)NC(=O)OCc1ccccc1` [calpeptin, Calpeptin], in the test on Jurkat T cells [8] (setting [11]), the “effect on VP-16-induced Bax cleavage” value was “delay”; the “effect on VP-16-induced release of cytochrome c from mitochondria to the cytosol” value is given as “delay”; the “time of VP-16-induced caspase-3 processing and PARP cleavage with calpeptin (delayed from 6 hours)” value came to 24 h; the “time of autolysis of the 30 kDa small subunit of calpain with calpeptin (delayed from 3 hours)” value is 24 h. For the same compound, the “apoptosis induction by the inhibitor itself” value with Jurkat T cells [8] (calpeptin 10 μM, 1 hour pretreatment, no VP-16) is reported as “did not induce apoptosis”. Also, the “inhibition of PARP cleavage at 24 hours” value with Jurkat T cells [8] (fresh calpeptin added at 18 hours after VP-16 treatment) is on record as “complete inhibition”.

Regarding `CN[C@@H]1C[C@H]2O[C@@](C)([C@@H]1OC)n1c3ccccc3c3c4c(c5c6ccccc6n2c5c31)C(=O)NC4` [staurosporin], the “treatment time after which cytosolic cytochrome c appeared” value in the test on Jurkat T cells [2] (staurosporin 1 μM) came to 3 h. The “time at which caspase-3 processing/activation, PARP cleavage and DNA fragmentation occurred” value in the test with Jurkat T cells [4] (staurosporin 1 μM, up to 24 hours) was at least 6 h.

Consider “Bax/p18: calpain-cleaved 18 kDa Bax fragment; the cloned Bax/p18 consists of amino acids 33-192 of Bax, expressed from transfected cDNA”, for which, in the test with Bcl-2, the “interaction with Bcl-2 (co-immunoprecipitation by anti-Bcl-2 antibody)” value is listed as “did not interact”. Further, in [9], the “cytochrome c-associated apoptotic events” value is “release of cytochrome c, cleavage of PARP and fragmentation of DNA”. For the same compound, in the test on Jurkat T cells [10], the “caspase-3 processing/activation, PARP cleavage and DNA fragmentation” value is listed as “detected”; the “release of cytochrome c” value is on record as “induced”.

Turning to “Bax/p21: full-length Bax protein, endogenous or expressed from transfected Bax-α cDNA”, the “interaction with Bcl-2 (co-immunoprecipitation by anti-Bcl-2 antibody)” value with Bcl-2 is on record as “co-immunoprecipitated”. Moreover, the “cytochrome c-associated apoptotic events” value in test [9] is given as “did not induce”. For the same compound, the “release of cytochrome c” value in the test with Jurkat T cells [10] is “not observed”.
